Reference: ChEMBL document CHEMBL1153043, “Synthesis and evaluation of 1-(benzo[b]thiophen-2-yl)ethanone analogues as novel anti-osteoporosis agents acting on BMP-2 promotor” (Bioorg Med Chem Lett, 2009)

Experiments:
[1] = Enhancement of BMP-2 expression in mouse MC3T3-E1 cells assessed as upregulation rate at 4 uM; assay type: functional, cell-based
[2] = tested on: Rattus norvegicus; assay: Antiosteoporotic activity in ovariectomized Sprague-Dawley rat assessed as trabecula resorption surface at 15 mg/kg/day, po for 90 days by bone histomorphometry; assay type: functional
[3] = Toxicity in po dosed Kunming mouse; assay type: organism-based; conditions: in vivo
[4] = tested on: Rattus norvegicus; assay: Antiosteoporotic activity in po dosed ovariectomized Sprague-Dawley rat assessed as mineral apposition rate administered for 90 days by bone histomorphometry; assay type: functional, organism-based
[5] = tested on: Rattus norvegicus; assay: Toxicity in sham operated Sprague-Dawley rat assessed as effect on alkaline phosphatase level at 150 mg/kg/day, po for 90 days; assay type: organism-based; design: route oral; conditions: in vivo, 2160 h
[6] = tested on: Rattus norvegicus; assay: Antiosteoporotic activity in ovariectomized Sprague-Dawley rat assessed as mineral apposition rate at 15 mg/kg/day, po for 90 days by bone histomorphometry; assay type: functional
[7] = tested on: Rattus norvegicus; assay: Toxicity in sham operated Sprague-Dawley rat assessed as effect on direct-high density lipoprotein level at 150 mg/kg/day, po for 90 days; assay type: organism-based; design: route oral; conditions: in vivo, 2160 h
[8] = tested on: Rattus norvegicus; assay: Antiosteoporotic activity in ovariectomized Sprague-Dawley rat assessed as trabecular bone volume at 30 mg/kg/day, po for 90 days by bone histomorphometry; assay type: functional, Trabecula
[9] = Toxicity in ip dosed Kunming mouse; assay type: organism-based; conditions: in vivo
[10] = tested on: Rattus norvegicus; assay: Antiosteoporotic activity in po dosed ovariectomized Sprague-Dawley rat assessed as average osteoid width administered for 90 days by bone histomorphometry; assay type: functional, organism-based
[11] = tested on: Rattus norvegicus; assay: Antiosteoporotic activity in ovariectomized Sprague-Dawley rat assessed as trabecular bone volume at 7.5 mg/kg/day, po for 90 days by bone histomorphometry; assay type: functional, Trabecula
[12] = tested on: Rattus norvegicus; assay: Antiosteoporotic activity in ovariectomized Sprague-Dawley rat assessed as trabecula formation surface at 30 mg/kg/day, po for 90 days by bone histomorphometry; assay type: functional
[13] = tested on: Rattus norvegicus; assay: Toxicity in sham operated Sprague-Dawley rat assessed as effect on glutamine-oxaloacetic transaminase level at 150 mg/kg/day, po for 90 days; assay type: organism-based; design: route oral; conditions: in vivo, 2160 h
[14] = tested on: Rattus norvegicus; assay: Toxicity in sham operated Sprague-Dawley rat assessed as effect on total cholesterol level at 150 mg/kg/day, po for 90 days; assay type: organism-based; design: route oral; conditions: in vivo, 2160 h
[15] = tested on: Rattus norvegicus; assay: Antiosteoporotic activity in ovariectomized Sprague-Dawley rat assessed as trabecula formation surface at 7.5 mg/kg/day, po for 90 days by bone histomorphometry; assay type: functional
[16] = tested on: Rattus norvegicus; assay: Toxicity in sham operated Sprague-Dawley rat assessed as effect on general behavior at 150 mg/kg/day, po for 90 days; assay type: organism-based; design: route oral; conditions: in vivo, 2160 h
[17] = tested on: Rattus norvegicus; assay: Antiosteoporotic activity in ovariectomized Sprague-Dawley rat assessed as trabecula formation surface at 15 mg/kg/day, po for 90 days by bone histomorphometry; assay type: functional
[18] = tested on: Rattus norvegicus; assay: Toxicity in sham operated Sprague-Dawley rat assessed as effect on glucose level at 150 mg/kg/day, po for 90 days; assay type: organism-based; design: route oral; conditions: in vivo, 2160 h
[19] = tested on: Rattus norvegicus; assay: Antiosteoporotic activity in ovariectomized Sprague-Dawley rat assessed as mineral apposition rate at 30 mg/kg/day, po for 90 days by bone histomorphometry; assay type: functional
[20] = tested on: Rattus norvegicus; assay: Toxicity in sham operated Sprague-Dawley rat assessed as effect on glutamic-pyruvic transaminase level at 150 mg/kg/day, po for 90 days; assay type: organism-based; design: route oral; conditions: in vivo, 2160 h
[21] = tested on: Rattus norvegicus; assay: Antiosteoporotic activity in po dosed ovariectomized Sprague-Dawley rat assessed as trabecula formation surface administered for 90 days by bone histomorphometry; assay type: functional, organism-based
[22] = tested on: Rattus norvegicus; assay: Antiosteoporotic activity in ovariectomized Sprague-Dawley rat assessed as trabecular bone volume at 15 mg/kg/day, po for 90 days by bone histomorphometry; assay type: functional, Trabecula
[23] = tested on: Rattus norvegicus; assay: Antiosteoporotic activity in ovariectomized Sprague-Dawley rat assessed as osteo cortex mineralization rate at 15 mg/kg/day, po for 90 days by bone histomorphometry; assay type: functional
[24] = tested on: Rattus norvegicus; assay: Toxicity in sham operated Sprague-Dawley rat assessed as effect on triglycerides level at 150 mg/kg/day, po for 90 days; assay type: organism-based; design: route oral; conditions: in vivo, 2160 h
[25] = tested on: Rattus norvegicus; assay: Antiosteoporotic activity in po dosed ovariectomized Sprague-Dawley rat assessed as trabecular bone volume administered for 90 days by bone histomorphometry; assay type: functional, organism-based; conditions: Trabecula
[26] = tested on: Rattus norvegicus; assay: Toxicity in sham operated Sprague-Dawley rat assessed as effect on direct-low density lipoprotein level at 150 mg/kg/day, po for 90 days; assay type: organism-based; design: route oral; conditions: in vivo, 2160 h
[27] = tested on: Rattus norvegicus; assay: Toxicity in sham operated Sprague-Dawley rat assessed as effect on blood urea nitrogen level at 150 mg/kg/day, po for 90 days; assay type: organism-based; design: route oral; conditions: in vivo, 2160 h
[28] = tested on: Rattus norvegicus; assay: Antiosteoporotic activity in ovariectomized Sprague-Dawley rat assessed as mineral apposition rate at 7.5 mg/kg/day, po for 90 days by bone histomorphometry; assay type: functional
[29] = tested on: Rattus norvegicus; assay: Antiosteoporotic activity in ovariectomized Sprague-Dawley rat assessed as average osteoid width at 30 mg/kg/day, po for 90 days by bone histomorphometry; assay type: functional
[30] = tested on: Rattus norvegicus; assay: Antiosteoporotic activity in po dosed ovariectomized Sprague-Dawley rat assessed as osteo cortex mineralization rate administered for 90 days by bone histomorphometry; assay type: functional, organism-based
[31] = tested on: Rattus norvegicus; assay: Antiosteoporotic activity in ovariectomized Sprague-Dawley rat assessed as average osteoid width at 7.5 mg/kg/day, po for 90 days by bone histomorphometry; assay type: functional
[32] = tested on: Rattus norvegicus; assay: Toxicity in sham operated Sprague-Dawley rat assessed as effect on calcium level at 150 mg/kg/day, po for 90 days; assay type: organism-based; design: route oral; conditions: in vivo, 2160 h
[33] = tested on: Rattus norvegicus; assay: Toxicity in sham operated Sprague-Dawley rat assessed as effect on albumin level at 150 mg/kg/day, po for 90 days; assay type: organism-based; design: route oral; conditions: in vivo, 2160 h
[34] = tested on: Rattus norvegicus; assay: Antiosteoporotic activity in ovariectomized Sprague-Dawley rat assessed as osteo cortex mineralization rate at 30 mg/kg/day, po for 90 days by bone histomorphometry; assay type: functional
[35] = tested on: Rattus norvegicus; assay: Antiosteoporotic activity in ovariectomized Sprague-Dawley rat assessed as osteo cortex mineralization rate at 7.5 mg/kg/day, po for 90 days by bone histomorphometry; assay type: functional
[36] = tested on: Rattus norvegicus; assay: Antiosteoporotic activity in ovariectomized Sprague-Dawley rat assessed as trabecula resorption surface at 7.5 mg/kg/day, po for 90 days by bone histomorphometry; assay type: functional
[37] = tested on: Rattus norvegicus; assay: Toxicity in sham operated Sprague-Dawley rat assessed as effect on total protein level at 150 mg/kg/day, po for 90 days; assay type: organism-based; design: route oral; conditions: in vivo, 2160 h
[38] = tested on: Rattus norvegicus; assay: Toxicity in sham operated Sprague-Dawley rat assessed as effect on creatinine level at 150 mg/kg/day, po for 90 days; assay type: organism-based; design: route oral; conditions: in vivo, 2160 h
[39] = tested on: Rattus norvegicus; assay: Antiosteoporotic activity in ovariectomized Sprague-Dawley rat assessed as average osteoid width at 15 mg/kg/day, po for 90 days by bone histomorphometry; assay type: functional
[40] = tested on: Rattus norvegicus; assay: Antiosteoporotic activity in ovariectomized Sprague-Dawley rat assessed as trabecula resorption surface at 30 mg/kg/day, po for 90 days by bone histomorphometry; assay type: functional
[41] = tested on: Rattus norvegicus; assay: Toxicity in sham operated Sprague-Dawley rat assessed as effect on total bilirubin level at 150 mg/kg/day, po for 90 days; assay type: organism-based; design: route oral; conditions: in vivo, 2160 h
[42] = tested on: Rattus norvegicus; assay: Antiosteoporotic activity in po dosed ovariectomized Sprague-Dawley rat assessed as trabecula resorption surface administered for 90 days by bone histomorphometry; assay type: functional, organism-based
[43] = tested on: Rattus norvegicus; assay: Toxicity in sham operated Sprague-Dawley rat assessed as effect on bone histomorphometric parameters at 150 mg/kg/day, po for 90 days; assay type: organism-based; design: route oral; conditions: in vivo, 2160 h
[44] = Enhancement of BMP-2 expression in mouse MC3T3-E1 cells assessed as upregulation rate at 0.4 uM; assay type: functional, cell-based
[45] = tested on: Rattus norvegicus; assay: Antiosteoporotic activity in ovariectomized Sprague-Dawley rat assessed as average osteoid width at 5 mg/kg/day, po for 90 days by bone histomorphometry; assay type: functional
[46] = tested on: Rattus norvegicus; assay: Antiosteoporotic activity in ovariectomized Sprague-Dawley rat assessed as mineral apposition rate at 5 mg/kg/day, po for 90 days by bone histomorphometry; assay type: functional
[47] = tested on: Rattus norvegicus; assay: Antiosteoporotic activity in ovariectomized Sprague-Dawley rat assessed as trabecula resorption surface at 5 mg/kg/day, po for 90 days by bone histomorphometry; assay type: functional
[48] = tested on: Rattus norvegicus; assay: Antiosteoporotic activity in ovariectomized Sprague-Dawley rat assessed as trabecular bone volume at 5 mg/kg/day, po for 90 days by bone histomorphometry; assay type: functional, Trabecula
[49] = tested on: Rattus norvegicus; assay: Antiosteoporotic activity in ovariectomized Sprague-Dawley rat assessed as trabecula formation surface at 5 mg/kg/day, po for 90 days by bone histomorphometry; assay type: functional
[50] = tested on: Rattus norvegicus; assay: Antiosteoporotic activity in ovariectomized Sprague-Dawley rat assessed as osteo cortex mineralization rate at 5 mg/kg/day, po for 90 days by bone histomorphometry; assay type: functional

Work on CC(=O)c1sc2ccc(C)c(Cl)c2c1C yielded an Activity [1] of 6.5%.
For CC(=O)c1cc2ccccc2s1, the Activity [2] was 5.16%, the LD50 [3] was 5000 mg/kg and the Activity [4] was “Dose-dependent effect”. The Activity [5] was “Non-toxic”, the Activity [1] was 35.6% and the Activity [6] was 2.19 µm/day. The Activity [7] was “Non-toxic”, the Activity [8] was 21.02% and the LD50 [9] was 1580 mg/kg. For the same molecule, the Activity [10] was “Dose-dependent effect”, the Activity [11] was 14.41% and the Activity [12] was 6.39%. The Activity [13] was “Non-toxic”, the Activity [14] was “Non-toxic” and the Activity [15] was 7.4%. The Activity [16] was “Non-toxic”, the Activity [17] was 6.64% and the Activity [18] was “Non-toxic”. For the same molecule, the Activity [19] was 2.18 µm/day, the Activity [20] was “Non-toxic” and the Activity [21] was “Dose-dependent effect”. The Activity [22] was 19.39%, the Activity [23] was 3.14 µm/day and the Activity [24] was “Non-toxic”. For the same molecule, the Activity [25] was “Dose-dependent effect”, the Activity [26] was “Non-toxic” and the Activity [27] was “Non-toxic”. For the same molecule, the Activity [28] was 2.32 µm/day, the Activity [29] was 10.8 µm and the Activity [30] was “Dose-dependent effect”. The Activity [31] was 11.4 µm, the Activity [32] was “Non-toxic” and the Activity [33] was “Non-toxic”. It also gave an Activity [34] of 3.22 µm/day, an Activity [35] of 3.42 µm/day and an Activity [36] of 7.81%. The Activity [37] was “Non-toxic”, the Activity [38] was “Non-toxic” and the Activity [39] was 10.9 µm. For the same molecule, the Activity [40] was 4.74%, the Activity [41] was “Non-toxic” and the Activity [42] was “Dose-dependent effect”. The Activity [43] was “Non-toxic”.
Work on CC[C@H](C)C(=O)O[C@H]1C[C@@H](C)C=C2C=C[C@H](C)[C@H](CC[C@@H]3C[C@@H](O)CC(=O)O3)[C@H]21 yielded an Activity [44] of 20.9%.
For CC(=O)c1csc2ccccc12, the Activity [1] was 11.9%.
CC(=O)c1cc2cc(C(F)(F)F)ccc2s1 gave an Activity [1] of 18.5%.
With CC(=O)c1cc2c(Cl)c(C)ccc2s1 the Activity [1] was 39.8%.
Molecule O=C(O)c1cc2ccccc2s1 has an Activity [1] of 10.8%.
For O=C(c1ccc(OCCN2CCCCC2)cc1)c1c(-c2ccc(O)cc2)sc2cc(O)ccc12 [RALOXIFENE], the Activity [45] was 11.1 µm, the Activity [46] was 2.14 µm/day and the Activity [47] was 3.34%. The Activity [48] was 22.31%, the Activity [49] was 6.52% and the Activity [50] was 3.15 µm/day.
In the case of CC(=O)c1cc2c(Cl)ccc(C)c2s1, the Activity [1] is reported as 32%.
Work on NNC(=O)c1cc2ccccc2s1 yielded an Activity [1] of 7.8%.
